Source: patent US20050165074A1, “Amide derivatives as C-KIT modulators” (Ambit Biosciences Corporation, priority 2003, published 2005)
pKd: −log10 of the molar value.

molecular target: KIT (DKIN) (Homo sapiens, UniProt P10721); assay: Binding constant (Kd) measurement, phage-displayed kinase competition binding assay, KIT (DKIN); conditions: c-Kit, DKIN construct
Text: (§1) The term “ND” represents non-determined values.

Sequence of KIT (DKIN) (P10721 589-937 limits assumed): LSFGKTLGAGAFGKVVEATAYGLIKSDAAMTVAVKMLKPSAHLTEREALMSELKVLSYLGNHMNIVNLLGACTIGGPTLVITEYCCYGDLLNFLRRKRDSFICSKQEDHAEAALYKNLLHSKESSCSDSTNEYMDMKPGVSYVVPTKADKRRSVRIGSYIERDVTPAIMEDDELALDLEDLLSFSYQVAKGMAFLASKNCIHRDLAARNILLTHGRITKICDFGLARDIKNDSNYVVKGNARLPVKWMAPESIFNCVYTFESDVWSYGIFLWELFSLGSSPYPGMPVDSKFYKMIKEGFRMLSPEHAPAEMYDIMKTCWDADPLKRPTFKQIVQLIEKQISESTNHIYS

pKd | Structure (SMILES)
6.00 to 7.00 | COc1ccc(CC(=O)Nc2cc(C(C)(C)C)no2)cc1
6.00 to 7.00 | CC(C)(C)c1cc(NC(=O)Cc2ccc(OCc3ccccc3)cc2)on1
5.00 to 6.00 | COc1cccc2cc([C@H](C)C(=O)Nc3cc(C(C)(C)C)on3)ccc12
5.00 to 6.00 | CC(C)(C)c1cc(NC(=O)Cc2ccc(F)cc2)on1
5.00 to 6.00 | CC(C)(C)c1cc(NC(=O)Cc2ccc(Cl)cc2)on1
6.00 to 7.00 | CC(C)(C)c1cc(NC(=O)Cc2ccc(Br)cc2)on1

molecular target: KIT (JMminus) (Homo sapiens, UniProt P10721); assay: Binding constant (Kd) measurement, phage-displayed kinase competition binding assay, KIT (JMminus); conditions: c-Kit, JMminus construct
Sequence (P10721 589-937 limits assumed): as above
Text: as §1

pKd | Structure (SMILES)
> 7.00 | Cc1nn(C)c(Cl)c1C(=O)Nc1ccc(CC(=O)Nc2cc(C(C)(C)C)on2)cc1
> 7.00 | CSc1ncc(Br)c(C(=O)Nc2ccc(CC(=O)Nc3cc(C(C)(C)C)on3)cc2)n1
> 7.00 | CC(C)(C)c1cc(NC(=O)Cc2ccc(NC(=O)c3ccc4cnccc4n3)cc2)no1
> 7.00 | Cn1cc(C(=O)Nc2ccc(CC(=O)Nc3cc(C(C)(C)C)on3)cc2)c2ccccc21
6.00 to 7.00 | CC(C)(C)c1cc(NC(=O)Cc2ccc(NC(=O)c3cccc4cccnc34)cc2)no1
> 7.00 | CC(C)(C)c1cc(NC(=O)Cc2ccc(NC(=O)c3cnc4ccccc4c3)cc2)no1
